Assay results taken from US11839609B1, “Substituted tetrahydroisoquinolines as anti-mitotic drug in triple negative breast cancer” (Florida A&M University, priority 2021, dated 2023).

Legend:
MDA-MB-231 cells [1] = assay: 2D imaging of cytoskeletal morphology (phalloidin/propidium iodide); format: cell-based, human; conditions: day 6; GM-4-53 5 μg/mL, paclitaxel 1 μg/mL
Procedure: (§1) 2D cell cultures were imaged to ascertain changes in morphological structure at the 6-day endpoint in MDA-MB-231 cells in the presence or absence of treatments. In brief, cells were fixed in 4% paraformaldehyde and incubated at 37° C. in 5% CO2/atmosphere for 15 min. After delicate removal of paraformaldehyde, sterile ultra-pure biological grade water containing 0.2% Triton X-100 was gently added to each well (100 uL) and returned to the incubator for 45 min. After gentle removal, a PBS solution containing propidium iodide (1 μg/mL) and Phalloidin-iFluor 488 Reagent (ab176753) was added to each well, according to the manufacturer's instructions Abcam (Cambridge, MA, USA), and images were captured on an inverted fluorescent microscope using the 10× and 25× fluo-objectives. 3D tumors were stained with fluorescein diacetate (live-cell dye) and countered imaged for morphology.

MDA-MB-231 cells [2] = assay: Cell proliferation (cell count), 6-day endpoint, Alamar blue; format: cell-based, human; conditions: for concentration showing a complete blockage of cell proliferation with lack of cell toxicity: MDA-MB-231, chosen for microarray
Procedure: MDA-MB-231 cells (ATCC® HTB-26™) were used. These cells are human triple negative breast cancer cells, which we obtained from American Type Culture Collection (ATCC) (Manassas, VA, USA). MDA-MB-231 cells were initially brought up in ATCC-formulated Leibowitz's L-15 medium, supplemented with 10% fetal bovine serum (FBS) and penicillin/streptomycin (100 U/0.1 mg/ml). After confluence, the cells were sub-cultured and grown in Dulbecco's modified Eagle's medium (DMEM) containing phenol red, 7.5% FBS, 4 mM L-glutamine, 20 μM sodium pyruvate, and penicillin/streptomycin (100 U/0.1 mg/ml). Cells were maintained at 37° C. in 5% C02/atmosphere, and every 2-5 days, the medium was replaced and cells sub-cultured. The growth medium was used for all experiments conducted herein.
For MDA-MB-231 cells, both paclitaxel and GM-4-53 were dissolved in DMSO and […]. A stock solution for both compounds was prepped in HBSS. In brief, 96-well plates were seeded with cells (0.04×10^5/well) to a volume of 200 μL, to which drugs were added, and cell proliferation (as cell count) was evaluated at a 6-day endpoint, using Alamar blue. […] Samples were returned to the incubator for 4-6 h, and the reduction in the dye (to resorufin, a fluorescent compound) caused by viable cells was quantitatively analyzed using a Synergy HTX multi-mode reader (Bio-Tek, Winooski, VT, USA), with excitation/emission wavelength settings at 550 nm/580 nm. Cell count was evaluated as % control, and the inhibitory growth (IG50) value was calculated by regression analysis. […] The cytostatic effects of MCF-7 and Ishikawa cell lines were determined using the CellTiter-Glo (CTG) luminescent cell viability assay, which is based on the direct determination of intracellular ATP level (determining the number of viable cells in culture based on the quantification of ATP present), which signals the presence of metabolically active cells. Luminescence results were read on TriLux Luminometer. […]

MDA-MB-231 cells [3] = assay: Whole-transcriptome microarray (WT 2.1 Human), differentially expressed genes; format: cell-based; conditions: 36 h; for ID1, ID3 and ID4 transcripts: GM-4-53 more significant effects than paclitaxel; for DEGs shared by both drugs (overlap) / down-regulated DEGs vs. controls / upregulated DEGs vs. controls / differentially expressed genes (DEGs) of 48,226 genes analyzed: paclitaxel 1 μg/mL, GM-4-53 5 μg/mL; for differentially expressed genes (DEGs) of 48,226 genes analyzed: FC >2 or <−2, p and FDR p <0.05
Procedure: For MDA-MB-231 cells, both paclitaxel and GM-4-53 were dissolved in DMSO and […]. A stock solution for both compounds was prepped in HBSS. In brief, 96-well plates were seeded with cells (0.04×10^5/well) to a volume of 200 μL, to which drugs were added, and cell proliferation (as cell count) was evaluated at a 6-day endpoint, using Alamar blue. For Alamar blue testing, a working solution of resazurin prepared in sterile phosphate-buffered saline (PBS)-phenol red (0.5 mg/mL) was added (15% v/v) to each sample in a 96-well plate. Samples were returned to the incubator for 4-6 h, and the reduction in the dye (to resorufin, a fluorescent compound) caused by viable cells was quantitatively analyzed using a Synergy HTX multi-mode reader (Bio-Tek, Winooski, VT, USA), with excitation/emission wavelength settings at 550 nm/580 nm. Cell count was evaluated as % control, and the inhibitory growth (IG50) value was calculated by regression analysis. Cytotoxicity studies were carried out at equal dose concentrations as proliferation studies at a higher plating density (0.5×10^5/well), over 24-36 h. The cytostatic effects of MCF-7 and Ishikawa cell lines were determined using the CellTiter-Glo (CTG) luminescent cell viability assay, which is based on the direct determination of intracellular ATP level (determining the number of viable cells in culture based on the quantification of ATP present), which signals the presence of metabolically active cells. Luminescence results were read on TriLux Luminometer. Optimal concentrations for microarray were established by a lack of cell toxicity, at a concentration showing a complete blockage of cell proliferation; paclitaxel (1 μg/mL) and GM-4-53 (5 μg/mL). For microarray studies, cells were plated and treated in […] flasks for 36 h.
After the experimental 36-hour time point, the cells were scraped, washed three times in ice-cold HBSS, spun down, the supernatant removed, and the remaining pellet was rapidly frozen and stored at −80° C. Total RNA was isolated and purified using the Trizol/chloroform method. The RNA quality was assessed, and concentrations were equalized to 82 ng/μI in nuclease-free water. According to the GeneChip™ WT PLUS Reagent Manual for Whole Transcript (WT) expression arrays, whole transcriptome analysis was conducted. Briefly, RNA was reverse transcribed to first strand/second strand […]. The cRNA was purified and assessed for yield before the second cycle single-stranded cDNA synthesis, hydrolysis of RNA, and purification of the second cycle single-stranded cDNA. Subsequently, cDNA was assessed for yield, fragmented, labeled, and hybridized onto the arrays before being subjected to fluidics and imaging using the Gene Atlas (Affymetrix, ThermoFisher Scientific). The array data, quality control, and initial processing from CEL to CHP files were conducted using an expression console before data evaluation using the Affymetrix transcriptome analysis console (Wiki/Kegg pathways) and protein-protein interaction (PPI) String Database (String Consortium 2020)^1. The dataset has been deposited to NIH Gene Expression OmniBus.

MDA-MB-231 cells [4] = assay: 3D tumor spheroid study; format: cell-based, human; conditions: GM-4-53 5 μg/mL, paclitaxel 1 μg/mL; drugs added day 14, images day 24
Procedure: MDA-MB-231 cells were plated in low-adhesion, round-bottom, sterile, 96-well plates at a cell density of (0.2×10^5/well), in 200 uL of cell culture media centrifuged at 1800×g for 3 min prior to incubation at 37° C. in 5% C02/atmosphere. For the first 3 days, cells were taken out and re-centrifuged at 1800×g×3 min. 3D spheroids were left to grow for 10 days. On day 14, experimental drugs were added, and images were captured on day 24.
as §1

MDA-MB-231 cells [5] = assay: Cytotoxicity assay at high plating density, 24-36 h; format: cell-based, human; conditions: 36-hour toxicity assay, equal drug concentrations, 0.5×10^5 cells/well
Procedure: For MDA-MB-231 cells, both paclitaxel and GM-4-53 were dissolved in DMSO and […]. A stock solution for both compounds was prepped in HBSS. In brief, 96-well plates were seeded with cells (0.04×10^5/well) to a volume of 200 μL, to which drugs were added, and cell proliferation (as cell count) was evaluated at a 6-day endpoint, using Alamar blue. For Alamar blue testing, a working solution of resazurin prepared in sterile phosphate-buffered saline (PBS)-phenol red (0.5 mg/mL) was added (15% v/v) to each sample in a 96-well plate. Samples were returned to the incubator for 4-6 h, and the reduction in the dye (to resorufin, a fluorescent compound) caused by viable cells was quantitatively analyzed using a Synergy HTX multi-mode reader (Bio-Tek, Winooski, VT, USA), with excitation/emission wavelength settings at 550 nm/580 nm. Cell count was evaluated as % control, and the inhibitory growth (IG50) value was calculated by regression analysis. […] The cytostatic effects of MCF-7 and Ishikawa cell lines were determined using the CellTiter-Glo (CTG) luminescent cell viability assay, which is based on the direct determination of intracellular ATP level (determining the number of viable cells in culture based on the quantification of ATP present), which signals the presence of metabolically active cells. Luminescence results were read on TriLux Luminometer. […]

tubulin = assay: Tubulin polymerization/depolymerization; format: biochemical
[6] = tested on: MCF-7 breast cancer cell line; assay: Cytostatic effect, CellTiter-Glo luminescent cell viability assay; format: cell-based, human; conditions: MCF-7, Southern Research Institute, FIG. 4
Procedure: (§2) The anti-proliferative activity of GM-4-53 on two additional cell lines was evaluated at the Southern Research Institute (SRI, Birmingham, Alabama, USA). There, the human MCF-7 breast cancer cell line was purchased from the NCI. The human Ishikawa endometrial cancer cell line was purchased from Sigma Aldrich. Both cell lines were cultured in phenol red-free RPMI-1640 (Hyclone) (500 mL), supplemented with L-glutamine-dipeptide (Hyclone) (5 mL), and 10% fetal bovine serum (Atlanta Biologicals) (50 mL).
(§3) For MDA-MB-231 cells, both paclitaxel and GM-4-53 were dissolved in DMSO and […]. A stock solution for both compounds was prepped in HBSS. In brief, 96-well plates were seeded with cells (0.04×10^5/well) to a volume of 200 μL, to which drugs were added, and cell proliferation (as cell count) was evaluated at a 6-day endpoint, using Alamar blue. […] Samples were returned to the incubator for 4-6 h, and the reduction in the dye (to resorufin, a fluorescent compound) caused by viable cells was quantitatively analyzed using a Synergy HTX multi-mode reader (Bio-Tek, Winooski, VT, USA), with excitation/emission wavelength settings at 550 nm/580 nm. Cell count was evaluated as % control, and the inhibitory growth (IG50) value was calculated by regression analysis. […] Luminescence results were read on TriLux Luminometer. […]

[7] = tested on: Ishikawa endometrial cancer cell line; assay: as above; format: cell-based, human; conditions: Southern Research Institute, FIG. 4
Procedure: as §2, §3

Solubility = format: physicochemical
[8] = tested on: triple negative breast cancer (TNBC); assay: Treatment of a TNBC patient (Example 1); format: in vivo, human; conditions: therapeutically effective amount
Procedure: A patient presents with a lump in their left breast. A biopsy of the mass is performed and the cells are found to lack estrogen or progesterone receptors and HER2 protein thus confirming a diagnosis of triple negative breast cancer (TNBC). The patient is administered a therapeutically effective amount of 4-Ethyl-N-(7-hydroxy-3,4-dihydroisoquinolin-2(1H)-yl) benzamide (GM-4-53) for a time period sufficient to inhibit cell proliferation. The patient is tested at regular intervals while the drug is being administered as well as after administration has stopped.

| Structure (SMILES) | morphological changes of actin cytoskeleton (MDA-MB-231 cells [1]) | concentration showing a complete blockage of cell proliferation with lack of cell toxicity (MDA-MB-231 cells [2]) [µg/mL] | amphiregulin (AREG) and epiregulin (EREG) mRNA (MDA-MB-231 cells [3]) | expression of COX2 (MDA-MB-231 cells [3]) | expression of ICAM-1 (MDA-MB-231 cells [3]) | ID1, ID3 and ID4 transcripts (MDA-MB-231 cells [3]) | DEGs shared by both drugs (overlap) (MDA-MB-231 cells [3]) | down-regulated DEGs vs. controls (MDA-MB-231 cells [3]) | upregulated DEGs vs. controls (MDA-MB-231 cells [3]) | differentially expressed genes (DEGs) of 48,226 genes analyzed (MDA-MB-231 cells [3]) | effect on 3D tumor spheroid (MDA-MB-231 cells [4]) | cytotoxic effects (MDA-MB-231 cells [5]) | also measured |
| --- | --- | --- | --- | --- | --- | --- | --- | --- | --- | --- | --- | --- | --- |
| CC(=O)O[C@H]1C(=O)[C@@]2(C)[C@H]([C@H](OC(=O)c3ccccc3)[C@]3(O)C[C@H](OC(=O)[C@H](O)[C@@H](NC(=O)c4ccccc4)c4ccccc4)C(C)=C1C3(C)C)[C@]1(OC(C)=O)CO[C@@H]1C[C@@H]2O [paclitaxel, reference compound] | abnormally large-shaped extended actin networks | 1 | significantly downregulated | downregulated the expression | reduced the expression | pronounced downregulation | 52 | 45 | 108 | 153 | halt the growth of the spheroid and central core | no cytotoxic effects |  |
| CCc1ccc(C(=O)NN2CCc3ccc(O)cc3C2)cc1 [GM-4-53, 4-Ethyl-N-(7-hydroxy-3,4-dihydroisoquinolin-2(1H)-yl)benzamide] | abnormally large-shaped extended actin networks | 5 | significantly downregulated | downregulated the expression | reduced the expression | pronounced downregulation | 52 | 168 | 75 | 243 | halts the growth and appears to penetrate the tumor core | no cytotoxic effects | effect on tubulin nucleation (tubulin): only mild effects; effect on tubulin polymerization/depolymerization processes (tubulin): failed to show any effect; IG50 (cytostatic growth-inhibitory effect) [6]: mid-to-high; IG50 (cytostatic growth-inhibitory effect) [7]: mid-to-high; IC50 (MDA-MB-231 cells [2]; Homo sapiens, 144 h, MDA-MB-231, 6-day growth study, regression analysis, read-out: anti-proliferative IG50 growth inhibitory concentration): 261 nM; solubility (Solubility): excellent solubility; oncogenic transcription factors (FOS, JUN-b, NFKB1a) driving oncostatin M (OSM) signaling (MDA-MB-231 cells [3]; vs untreated controls): general loss; KLRC3 transcript (MDA-MB-231 cells [3]; greater extent in GM-4-53): loss of the KLRC3 transcript; patient outcome [8]: deemed in remission |
